# Data: patent publication US10668048B2, “Compounds for inhibiting bacterial growth via phosphatidylglycerol binding” (Wichita State University, priority 2016, dated 2020)
# Assays:
# [1] = Liptin-PG binding in solution (ITC and/or 1H NMR titration); conditions: for binding constant for PG (Ka): in DMF solution, prior research
# Protocol: The lipid binding ability of liptins 1-3 (FIG. 2A) have been investigated in solution using isothermal titration calorimetry (ITC) and/or ^1H NMR. Stoichiometry of binding was accomplished with Job plots using ^1H NMR. […] The use of organic solvents allowed the determination of binding motif using ^1H NMR.
# Liptins 1b, 1e, 2c, 2d, 3a, 3c in DMF/5% CHCl3; 3e in 50% DMSO, 45% CHCl3, 5% CH3OH.
# Liptins 1h and 1i 40% DMSO, 60% CHCl3, 3f in 20% DMSO, 80% CHCl3.
# Staphylococcus aureus [2] = assay: MIC in cation-adjusted Muller Hinton culture; type: cell-based; conditions: no growth after 24 hours
# Protocol: (§1) MICs were determined in cation-adjusted Muller Hinton culture. Standard CLSI protocol for serial dilutions of liptin concentrations were used to determine the MIC, starting at 0.01 OD. Two different experimental cultures were used and each data point measured in triplicate.
# Pseudomonas aeruginosa = assay: MIC in cation-adjusted Muller Hinton culture; type: cell-based; conditions: no growth after 24 hours
# Protocol: as §1
# Klebsiella pneumoniae [3] = assay: MIC in cation-adjusted Muller Hinton culture; type: cell-based; conditions: no growth after 24 hours
# Protocol: as §1
# Escherichia coli [4] = assay: MIC in cation-adjusted Muller Hinton culture; type: cell-based; conditions: no growth after 24 hours
# Protocol: as §1
# Acinetobacter baumannii [5] = assay: MIC in cation-adjusted Muller Hinton culture; type: cell-based; conditions: no growth after 24 hours
# Protocol: as §1
# Mycobacterium smegmatis [6] = assay: MIC in cation-adjusted Muller Hinton culture; type: cell-based; conditions: no growth after 24 hours
# Protocol: as §1
# Staphylococcus aureus [7] = assay: MBC in cation-adjusted Muller Hinton culture; type: cell-based
# Protocol: as §1, with “Minimum bactericidal concentration (MBC)” for “MICs”, “MBC,” for “MIC,”
# Klebsiella pneumoniae [8] = assay: MBC in cation-adjusted Muller Hinton culture; type: cell-based
# Protocol: as §1, with “Minimum bactericidal concentration (MBC)” for “MICs”, “MBC,” for “MIC,”
# Escherichia coli [9] = assay: MBC in cation-adjusted Muller Hinton culture; type: cell-based
# Protocol: as §1, with “Minimum bactericidal concentration (MBC)” for “MICs”, “MBC,” for “MIC,”
# Acinetobacter baumannii [10] = assay: MBC in cation-adjusted Muller Hinton culture; type: cell-based
# Protocol: as §1, with “Minimum bactericidal concentration (MBC)” for “MICs”, “MBC,” for “MIC,”
# Mycobacterium smegmatis [11] = assay: MBC in cation-adjusted Muller Hinton culture; type: cell-based
# Protocol: as §1, with “Minimum bactericidal concentration (MBC)” for “MICs”, “MBC,” for “MIC,”
# MRSA [12] = assay: MBC in cation-adjusted Muller Hinton culture; type: cell-based, Methicillin-resistant S. aureus
# Protocol: as §1, with “Minimum bactericidal concentration (MBC)” for “MICs”, “MBC,” for “MIC,”
# MRSA [13] = assay: MIC in cation-adjusted Muller Hinton culture; type: cell-based, Methicillin-resistant S. aureus; conditions: no growth after 24 hours
# Protocol: as §1
# [14] = Inorganic phosphate anion binding in DMF solution
# From the text: Liptins 2a-2d (FIG. 2A) have been prepared and characterized, but not published. However, example syntheses of several precursors required for the preparation of liptins 2a-2d, via precursors 7-8, utilizing soluble copper catalyst developed in our laboratory to couple the two aromatic rings and to elaborate the ring structure is based upon our previous experience, as is our methodology to efficiently ureidoalkylate the bis-phenol intermediates (FIG. 5). […] In contrast, inorganic phosphate anion bound more tightly to 2c (Ka=10^3 M^−1), indicating the anion binding unit with […] linking the two phenolic oxygens was a complementary fit for phosphate anion. By adding two additional methylene groups to the bridge linking the two rings [i.e., now (CH2)5, 2d], the size of the pocket better accommodates the PG head group, leading to increased […] with a Ka≈500 M^−1 in DMF. To further increase binding affinity, we changed the 3-hydroxypropane para-substituent into a 2,3-propane diol para-substituent (seen in 8 prepared from 7, FIG. 5). This increased the number of possible interactions between the liptin and the PG glycerol hydroxyls and reduced possible conformational constraints in the binding pocket when only two hydroxyl groups are present. […]
# Staphylococcus aureus [15] = assay: Live-Dead stain (BacLight SYTO 9 / propidium iodide); type: cell-based; conditions: 5 μM, 90 minutes
# Protocol: (§2) Molecular Probes BacLight© kits containing the SYTO 9 green-fluorescent dye and propidium iodide red-fluorescent dye were used to detect live or dead bacteria after ninety minute exposure of bacteria to liptins 1h or 1k. Bacteria in Muller Hinton culture were grown to an OD=0.3, were inoculated with liptins 1h and 1k and after ninety minutes stained with a mixture of the above dyes and affixed to a slide to be examined under a light microscope (40×) to determine the number of live and dead cells (green colored cells considered alive and red-colored cells considered dead). Data was calculated based upon an average of 5 different plate counts from each slide, and is based on a percent of total bacteria counted (live and dead). Control sample contains no liptin.
# Klebsiella pneumoniae [16] = assay: as above; type: cell-based; conditions: 90 minutes
# Protocol: as §2
# Escherichia coli [17] = assay: as above; type: cell-based; conditions: 10 μM, 90 minutes
# Protocol: as §2
# Acinetobacter baumannii [18] = assay: as above; type: cell-based; conditions: 5 μM, 90 minutes
# Protocol: as §2
# Mycobacterium smegmatis [19] = assay: as above; type: cell-based; conditions: 5 μM, 90 minutes
# Protocol: as §2
# [20] = system: A549 (lung carcinoma epithelial) cells; assay: LDH release cytotoxicity assay; type: cell-based; conditions: near 15 μM
# Protocol: (§3) Toxicity Studies of human HeLa (vaginal carcinoma) and A549 (lung carcinoma epithelial) cells with Liptins 1h and 1k.
# (§4) Eukaryote cell toxicity was determined using a Pierce LDH assay kit including the Chemical Compound-Mediated Cytotoxicity assay. This kit measures cell death by measuring the amount of lactate dehydrogenase released from cells. Lactate dehydrogenase (LDH) is a cytosolic enzyme present in many different types of cells. When the plasma membrane is damaged, LDH is released into cell culture media. The released LDH can be quantified by a coupled enzymatic reaction. First, LDH catalyzes the conversion of lactate to pyruvate via reduction of NAD+ to NADH. Second, diaphorase uses NADH to reduce a tetrazolium salt (INT) to a red formazan product. Therefore, the level of formazan formation is directly proportional to the amount of released LDH in the medium.
# [21] = system: human HeLa (vaginal carcinoma) cells; assay: LDH release cytotoxicity assay; type: cell-based; conditions: up to about 15 μM
# Protocol: as §3, §4
# S. aureus = assay: BacLight Bacterial Membrane Potential kit, plasma membrane depolarization; type: cell-based; conditions: one half the liptins' MICs; concentration dependent
# Protocol: (§5) The Molecular Probes BacLight® Bacterial Membrane Potential kit was used to detect changes in the polarization of the bacterial plasma membrane upon inoculation of bacteria with varying concentrations of liptins 1h or 1k. […] CCCP (carbonyl cyanide 3-chlorophenylhydrazone) is a proton ionophore that destroys plasma membrane potential and as such is a positive control. […] With plasma membrane depolarization the bacterial cell loses its ability to synthesize ATP and proteins. Additionally loss of membrane potential stops the ability for cell replication due to an inability for proper placement of divisome proteins in the plasma membrane. […] Thus, it is possible that the liptin's mechanism of action is a result of their deleterious effect on the functioning of electron transport proteins found in the plasma membrane.
# E. coli = assay: as above; type: cell-based; conditions: one half the liptins' MICs; concentration dependent
# Protocol: as §5
# [22] = system: Gram-positive and Gram-negative bacteria; assay: Growth curves in BHI culture with liptins 1h-k; type: cell-based; conditions: one inoculation
# Protocol: Growth curves in BHI culture were generated (not shown) from liquid shake-flask cultures using absorbance measurements at 600 nm at different concentrations of liptins 1h-k. Uninoculated control flasks were used as blanks. Absorbance values of 0.1 OD unit was considered reasonable threshold for positive growth. The use of the nutrient-rich BHI culture allowed us to measure the effects of the small structural differences in liptins 1h-k on bacterial growth rates over long periods of time. […] Liptin exposure appears to stop bacterial growth, as evidenced by long lag phases, which increase with liptin concentration, and growth rates and maximum cell densities are decreased with liptin treatment.
# MRSA [23] = assay: Live-Dead stain (BacLight SYTO 9 / propidium iodide); type: cell-based, Methicillin-resistant S. aureus; conditions: 90 minutes
# Protocol: as §2
# [24] = ITC, DMF/5% CHCl3, 1:1 binding stoichiometry
# [25] = NMR titrations, DMF/5% CHCl3, 1:1 binding stoichiometry
# [26] = ITC or NMR titrations, 40% DMSO, 60% CHCl3
structure (smiles),measurement,setting,value
O=C(NCCOCc1ccccc1)Nc1ccccc1-c1c2nc(c(-c3ccccc3NC(=O)NCCOCc3ccccc3)c3ccc([nH]3)c(-c3ccccc3NC(=O)NCCOCc3ccccc3)c3nc(c(-c4ccccc4NC(=O)NCCOCc4ccccc4)c4ccc1[nH]4)C=C3)C=C2 [Liptin 3a],Ka,[1]; [24],2100 M⁻¹
O=C(NCc1cc(CCCO)cc2c1OCCCCOc1c(cc(CCCO)cc1CNC(=O)Nc1ccccc1)CCC2)Nc1ccccc1 [Liptin 2a],binding constant for PG (Ka),[1],no significant binding
Cc1ccc2c(c1)CNCCCCNCc1cc(C)ccc1OCCCCO2 [Liptin 1e],Ka,[1]; [25],250 M⁻¹
O=C(CNCc1ccccc1)Nc1ccccc1-c1c2nc(c(-c3ccccc3NC(=O)CNCc3ccccc3)c3ccc([nH]3)c(-c3ccccc3NC(=O)CNCc3ccccc3)c3nc(c(-c4ccccc4NC(=O)CNCc4ccccc4)c4ccc1[nH]4)C=C3)C=C2 [Liptin 3f],Ka,"[1]; NMR titrations, 20% DMSO, 80% CHCl3",2800 M⁻¹
O=C(NCc1cc(CCCO)cc2c1OCCCOc1c(cc(CCCO)cc1CNC(=O)Nc1ccccc1)CCC2)Nc1ccccc1 [Liptin 2b],binding constant for PG (Ka),[1],no significant binding
CCCCCCNC(=O)CCc1ccc2c(c1)CNCCCCNCc1cc(CCC(=O)NCCCCCC)ccc1OCCCCO2 [Liptin 1j],MIC,Staphylococcus aureus [2],4 µM
same,MIC,Pseudomonas aeruginosa,14 µM
same,MIC,Klebsiella pneumoniae [3],3.5 µM
same,MIC,Escherichia coli [4],3.5 µM
same,MIC,Acinetobacter baumannii [5],4 µM
same,MIC,Mycobacterium smegmatis [6],3.5 µM
same,MBC,Staphylococcus aureus [7],15.5 µM
same,MBC,Klebsiella pneumoniae [8],13 µM
same,MBC,Escherichia coli [9],15 µM
same,MBC,Acinetobacter baumannii [10],12.5 µM
same,MBC,Mycobacterium smegmatis [11],12 µM
same,MBC,MRSA [12],15 µM
same,MIC,MRSA [13],4.5 µM
Cc1ccc2c(c1)CNCCCNCc1cc(C)ccc1OCCCCCO2 [Liptin 1b],Ka,[1]; [25],200 M⁻¹
CCOCCOCCOCCNC(=O)Nc1ccccc1-c1c2nc(c(-c3ccccc3NC(=O)NCCOCCOCCOCC)c3ccc([nH]3)c(-c3ccccc3NC(=O)NCCOCCOCCOCC)c3nc(c(-c4ccccc4NC(=O)NCCOCCOCCOCC)c4ccc1[nH]4)C=C3)C=C2 [Liptin 3c],Ka,[1]; [24],3700 M⁻¹
O=C(NCc1cc(CCCO)cc2c1OCOc1c(cc(CCCO)cc1CNC(=O)Nc1ccccc1)CCC2)Nc1ccccc1 [Liptin 2c],Ka for inorganic phosphate anion,[14],10^3 M^−1
same,Ka,[1]; [24],420 M⁻¹
CCCCCCNC(=O)CCc1ccc2c(c1)CNCCCNCc1cc(CCC(=O)NCCCCCC)ccc1OCCCCCO2 [Liptin 1h],MIC,Staphylococcus aureus [2],2.5 µM
same,MIC,Pseudomonas aeruginosa,9 µM
same,MIC,Klebsiella pneumoniae [3],3 µM
same,MIC,Escherichia coli [4],2 µM
same,MIC,Acinetobacter baumannii [5],2.5 µM
same,MIC,Mycobacterium smegmatis [6],2.5 µM
same,MBC,Staphylococcus aureus [7],11 µM
same,MBC,Klebsiella pneumoniae [8],8.5 µM
same,MBC,Escherichia coli [9],9 µM
same,MBC,Acinetobacter baumannii [10],8.5 µM
same,MBC,Mycobacterium smegmatis [11],11.5 µM
same,Dead,Staphylococcus aureus [15],39%
same,Live,Staphylococcus aureus [15],61%
same,Dead,Klebsiella pneumoniae [16]; 5 μM,67%
same,Live,Klebsiella pneumoniae [16]; 5 μM,33%
same,Dead,Klebsiella pneumoniae [16]; 10 μM,100%
same,Live,Klebsiella pneumoniae [16]; 10 μM,0%
same,Dead,Escherichia coli [17],75%
same,Live,Escherichia coli [17],35%
same,Dead,Acinetobacter baumannii [18],88%
same,Live,Acinetobacter baumannii [18],12%
same,Dead,Mycobacterium smegmatis [19],93%
same,Live,Mycobacterium smegmatis [19],7%
same,MBC,MRSA [12],10 µM
same,MIC,MRSA [13],3 µM
same,Ka,[1]; [26],4600 M⁻¹
same,cytotoxicity (LDH release),[20],over 25%
same,cell toxicity (LDH release),[21],large toxicity
same,plasma membrane depolarization (red/green fluorescence ratio),S. aureus,large membrane depolarization
same,plasma membrane depolarization (red/green fluorescence ratio),E. coli,large membrane depolarization
same,antibacterial activity from growth curves,[22],most potent
same,Dead,MRSA [23]; 5 μM,72%
same,Live,MRSA [23]; 5 μM,28%
same,Dead,MRSA [23]; 10 μM,84%
same,Live,MRSA [23]; 10 μM,15%
CCCCCCNC(=O)CCc1ccc2c(c1)CNCCCNCc1cc(CCC(=O)NCCCCCC)ccc1OCCCCO2 [Liptin 1i],MIC,Staphylococcus aureus [2],3 µM
same,MIC,Pseudomonas aeruginosa,12 µM
same,MIC,Klebsiella pneumoniae [3],4 µM
same,MIC,Escherichia coli [4],3 µM
same,MIC,Acinetobacter baumannii [5],3.5 µM
same,MIC,Mycobacterium smegmatis [6],3 µM
same,MBC,Staphylococcus aureus [7],10.5 µM
same,MBC,Klebsiella pneumoniae [8],12 µM
same,MBC,Escherichia coli [9],14 µM
same,MBC,Acinetobacter baumannii [10],11.5 µM
same,MBC,Mycobacterium smegmatis [11],10.5 µM
same,MBC,MRSA [12],11.5 µM
same,MIC,MRSA [13],3.5 µM
same,Ka,[1]; [26],1500 M⁻¹
